Results on one compound are retold here after patent US12031173B2, “Methods of producing polyol lipids” (THE REGENTS OF THE UNIVERSITY OF CALIFORNIA, priority 2016, dated 2024).

This series in a line: Surface tension of aqueous PEFA solutions, Wilhelmy plate method. The series is classed as physicochemical. As to conditions: aqueous solution. On the procedure: Surface Tension: Surface tensions were measured, using Wilhelmy plate method (Digital Tensiometer K10ST, KRÜSS) for different concentrations of PEFA in aqueous solution. The stabilization time was from 30 minutes in higher concentration to as long as 2 hours in lower concentration (below 2.5 mg/L). The final data was recorded when the measured surface tension became stable.

Turning to `CC(=O)OC[C@H]1O[C@H]2O[C@@H](C)CCCCCC/C=C\CCCCCCCC(=O)O[C@H]3[C@H](O)[C@@H](O)[C@H](O[C@@H]2[C@@H](O)[C@@H]1O)O[C@@H]3COC(C)=O` [Sophorolipid, 1′,4″-Sophorolactone 6′,6″-diacetate], the “Average area occupied by each molecule” value amounted to 54.7 Å^2/molecule and the Surface excess concentration is reported as 2.93 × 10^−6 mol/m^2. Also, where the note is “Wilhelmy plate”, the “Critical Micelle Concentration” value is recorded as 15.2 mg/L, the Minimum surface tension was 36.8 mN/m and the “Slope of linear part for surface tension line” value is given as −11.14 mN/m.
